Source: ChEMBL document CHEMBL1201862, “PubChem BioAssay data set” (2004)
Active and inactive are the calls of the source.

Key:
CAAX prenyl protease 2 = CAAX prenyl protease 2 (Saccharomyces cerevisiae S288c, UniProt Q03530); format: biochemical
CAAX prenyl protease 1 = CAAX prenyl protease 1 (Saccharomyces cerevisiae S288c, UniProt P47154); assay: yeast CAAX protease Ste24 inhibition – biochemical, S. cerevisiae, plate reader, cherry-pick, dose response (AID 488815)
[1] = HepG2 cell cytotoxicity, dose response, cytotoxicity control for non-replicating M. tuberculosis project (AID 489018); format: functional; details: Mycobacterium tuberculosis
Exodeoxyribonuclease V = molecular target: T1, Exodeoxyribonuclease V (Escherichia coli (strain K12), UniProt P04993+P07648+P08394); assay: RecBCD inhibition via phage-restricted bacterial growth – absorbance, V66 E. coli, mutant T4 phage, counter-screen for AddAB inhibitor project, dose response (AID 492957); format: functional, cell-based, Escherichia coli str. K-12 substr. MG1655
T1 sequence (P04993 whole entry): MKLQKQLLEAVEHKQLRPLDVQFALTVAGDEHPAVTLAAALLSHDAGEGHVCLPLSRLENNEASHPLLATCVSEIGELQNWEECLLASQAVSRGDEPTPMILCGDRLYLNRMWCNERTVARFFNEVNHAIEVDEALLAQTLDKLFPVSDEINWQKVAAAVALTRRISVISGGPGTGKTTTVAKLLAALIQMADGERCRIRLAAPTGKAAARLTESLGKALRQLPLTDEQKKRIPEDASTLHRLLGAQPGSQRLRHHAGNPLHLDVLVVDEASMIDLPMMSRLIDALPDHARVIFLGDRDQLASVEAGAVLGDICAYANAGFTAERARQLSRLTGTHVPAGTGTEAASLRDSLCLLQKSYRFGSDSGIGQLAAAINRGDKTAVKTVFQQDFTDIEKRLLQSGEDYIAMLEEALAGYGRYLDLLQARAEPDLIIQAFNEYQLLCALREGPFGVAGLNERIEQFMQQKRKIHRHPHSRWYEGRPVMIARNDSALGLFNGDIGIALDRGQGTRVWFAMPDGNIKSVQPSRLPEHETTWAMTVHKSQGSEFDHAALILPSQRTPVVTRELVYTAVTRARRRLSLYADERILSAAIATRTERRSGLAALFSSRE
T1 sequence (P07648 whole entry): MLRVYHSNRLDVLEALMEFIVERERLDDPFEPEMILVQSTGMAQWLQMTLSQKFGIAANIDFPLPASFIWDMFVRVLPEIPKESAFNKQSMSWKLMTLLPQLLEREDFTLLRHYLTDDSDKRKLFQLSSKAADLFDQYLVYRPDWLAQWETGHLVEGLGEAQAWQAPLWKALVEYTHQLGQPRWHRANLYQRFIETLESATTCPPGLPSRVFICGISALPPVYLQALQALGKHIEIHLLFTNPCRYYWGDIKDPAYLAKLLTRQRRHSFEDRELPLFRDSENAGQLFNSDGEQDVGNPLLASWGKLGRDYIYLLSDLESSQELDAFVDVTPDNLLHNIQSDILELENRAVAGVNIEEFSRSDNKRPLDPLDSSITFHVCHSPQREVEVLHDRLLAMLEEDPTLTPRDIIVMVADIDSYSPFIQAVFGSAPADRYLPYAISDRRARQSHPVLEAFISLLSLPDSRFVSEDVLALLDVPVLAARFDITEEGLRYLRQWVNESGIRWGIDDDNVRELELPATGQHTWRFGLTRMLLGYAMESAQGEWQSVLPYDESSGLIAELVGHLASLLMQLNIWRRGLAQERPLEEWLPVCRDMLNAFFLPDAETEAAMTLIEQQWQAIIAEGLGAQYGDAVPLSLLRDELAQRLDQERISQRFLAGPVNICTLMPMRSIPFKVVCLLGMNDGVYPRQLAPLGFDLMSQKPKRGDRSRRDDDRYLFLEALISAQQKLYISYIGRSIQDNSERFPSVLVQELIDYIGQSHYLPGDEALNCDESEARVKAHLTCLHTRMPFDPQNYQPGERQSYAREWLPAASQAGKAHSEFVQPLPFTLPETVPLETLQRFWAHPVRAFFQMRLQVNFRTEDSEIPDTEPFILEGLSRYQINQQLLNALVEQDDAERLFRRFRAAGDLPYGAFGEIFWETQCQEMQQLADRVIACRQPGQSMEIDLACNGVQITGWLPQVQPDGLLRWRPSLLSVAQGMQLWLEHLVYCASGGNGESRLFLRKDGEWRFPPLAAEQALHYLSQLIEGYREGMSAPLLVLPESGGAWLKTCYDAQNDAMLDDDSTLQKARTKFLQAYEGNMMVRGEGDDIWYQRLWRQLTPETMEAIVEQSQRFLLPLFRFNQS
T1 sequence (P08394 whole entry): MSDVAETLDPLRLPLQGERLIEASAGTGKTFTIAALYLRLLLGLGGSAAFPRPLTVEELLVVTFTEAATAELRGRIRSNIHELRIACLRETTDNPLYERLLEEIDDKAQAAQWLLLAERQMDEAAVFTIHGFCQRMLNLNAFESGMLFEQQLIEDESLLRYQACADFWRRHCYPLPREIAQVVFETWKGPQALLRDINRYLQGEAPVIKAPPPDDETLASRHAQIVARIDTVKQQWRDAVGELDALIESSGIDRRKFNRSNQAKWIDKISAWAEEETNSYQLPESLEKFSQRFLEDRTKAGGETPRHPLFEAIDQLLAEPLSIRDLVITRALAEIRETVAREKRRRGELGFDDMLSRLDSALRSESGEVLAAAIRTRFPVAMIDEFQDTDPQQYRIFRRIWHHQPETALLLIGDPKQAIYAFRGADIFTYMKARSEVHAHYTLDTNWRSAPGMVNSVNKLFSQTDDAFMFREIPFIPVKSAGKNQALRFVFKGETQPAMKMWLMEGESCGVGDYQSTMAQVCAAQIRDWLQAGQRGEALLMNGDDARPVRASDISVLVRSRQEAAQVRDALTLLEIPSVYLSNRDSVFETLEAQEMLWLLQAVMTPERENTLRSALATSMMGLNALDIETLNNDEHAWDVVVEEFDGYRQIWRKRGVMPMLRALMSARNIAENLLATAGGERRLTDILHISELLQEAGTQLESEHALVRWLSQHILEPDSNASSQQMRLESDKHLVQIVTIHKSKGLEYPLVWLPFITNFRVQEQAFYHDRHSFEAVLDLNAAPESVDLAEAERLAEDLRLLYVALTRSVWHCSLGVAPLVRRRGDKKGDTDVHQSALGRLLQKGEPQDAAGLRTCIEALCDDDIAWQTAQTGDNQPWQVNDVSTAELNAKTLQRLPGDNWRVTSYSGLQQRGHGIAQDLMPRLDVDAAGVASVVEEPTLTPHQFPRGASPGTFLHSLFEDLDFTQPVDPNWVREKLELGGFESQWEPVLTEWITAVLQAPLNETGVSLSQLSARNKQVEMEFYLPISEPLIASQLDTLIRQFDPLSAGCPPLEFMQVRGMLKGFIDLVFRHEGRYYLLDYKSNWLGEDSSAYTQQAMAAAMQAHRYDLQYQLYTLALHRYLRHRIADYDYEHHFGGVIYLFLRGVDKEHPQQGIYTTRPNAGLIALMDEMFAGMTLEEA

[2] = Vero E6 cell cytotoxicity, dose response, cytotoxicity control for non-replicating M. tuberculosis project, secondary assay (AID 492998); format: functional, VeroE6; details: Vero C1008
[3] = molecular target: T2, Microphthalmia-associated transcription factor (Homo sapiens, UniProt O75030); assay: reducers of TRPM1 reporter luminescence, concentration series – cell-based, SK-MEL-5, cherry-picked, set 3, MITF inhibitor project, dose response (AID 493073); format: functional;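 further: SK-MEL-5 melanoma cells with luciferase driven by the MITF target TRPM1 promoter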
T2 sequence (O75030 whole entry): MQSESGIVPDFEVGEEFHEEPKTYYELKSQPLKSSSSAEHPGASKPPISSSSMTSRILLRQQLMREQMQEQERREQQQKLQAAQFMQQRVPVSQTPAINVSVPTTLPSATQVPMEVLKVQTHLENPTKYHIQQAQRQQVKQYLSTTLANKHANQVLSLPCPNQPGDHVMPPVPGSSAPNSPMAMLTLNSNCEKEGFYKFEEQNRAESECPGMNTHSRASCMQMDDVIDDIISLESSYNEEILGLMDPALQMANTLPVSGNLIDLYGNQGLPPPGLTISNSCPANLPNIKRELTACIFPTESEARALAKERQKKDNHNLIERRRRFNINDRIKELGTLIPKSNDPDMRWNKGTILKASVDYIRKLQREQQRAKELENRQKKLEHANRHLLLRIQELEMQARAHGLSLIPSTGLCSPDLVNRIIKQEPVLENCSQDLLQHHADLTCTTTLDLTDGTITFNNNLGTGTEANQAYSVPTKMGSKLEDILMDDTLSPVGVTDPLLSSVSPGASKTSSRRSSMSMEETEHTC

[4] = THP-1 cell cytotoxicity, dose response, cytotoxicity control for non-replicating M. tuberculosis project (AID 489025); format: functional
cells = format: functional
Paired box protein Pax-8 = Paired box protein Pax-8 (Homo sapiens, UniProt Q06710); assay: PAX8 transcriptional activity inhibition in RMG-I – RMG-I cells, luciferase, cherry-pick, dose response (AID 687027); format: functional, cell-based;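 further: luciferase reporter driven by Pax8 target thyroperoxidase promoter measured by SteadyGlo luminescence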
[5] = Counterscreen for AddAB inhibitors: absorbance-based bacterial cell-based high throughput dose response assay for inhibitors of bacterial viability. [Related pubchem assays (depositor defined):AID435030, AID449728, AID449731, AID488942, AID488955, AID488956]; format: functional
[6] = molecular target: G-protein coupled receptor 55 (Homo sapiens, UniProt Q9Y2T6); assay: inhibition of LPI-stimulated GPR55 beta-arrestin translocation – imaging, U2OS, beta-arrestin-GFP, LPI agonist, primary screen (AID 2013); format: functional;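 further: antagonist potency measured as reduced agonist-driven arrestin aggregation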
[7] = NIH3T3 cell viability loss – ATP luminescence, mouse fibroblasts, counter-screen, dose response (AID 2010); format: functional, cell-based;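 further: cells exposed to compound for about 90 hours before reading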
[8] = Trypanosoma cruzi growth suppression in host cells – NIH3T3 host cells, beta-gal luminescence, confirmation (AID 2044); format: functional, cell-based;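 further: intracellular parasites grown in NIH/3T3 mouse fibroblasts as host cells; luminescent beta-galactosidase reporter signal from transgenic T. cruzi replicating inside host cells; inhibitors lower the luminescence signal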
[9] = molecular target: Glyceraldehyde-3-phosphate dehydrogenase (Homo sapiens, UniProt P04406)
[10] = molecular target: Alkaline phosphatase, placental type (Homo sapiens, UniProt P05187); assay: human placental alkaline phosphatase inhibition – biochemical, luminescence, confirmation (AID 1512); format: functional
[11] = molecular target: T3, Alkaline phosphatase, tissue-nonspecific isozyme (Homo sapiens, UniProt P05186); assay: potency against alkaline phosphatase TNAP – biochemical, luminescent, dose response, SAR follow-up (AID 1056)
T3 sequence (P05186 whole entry): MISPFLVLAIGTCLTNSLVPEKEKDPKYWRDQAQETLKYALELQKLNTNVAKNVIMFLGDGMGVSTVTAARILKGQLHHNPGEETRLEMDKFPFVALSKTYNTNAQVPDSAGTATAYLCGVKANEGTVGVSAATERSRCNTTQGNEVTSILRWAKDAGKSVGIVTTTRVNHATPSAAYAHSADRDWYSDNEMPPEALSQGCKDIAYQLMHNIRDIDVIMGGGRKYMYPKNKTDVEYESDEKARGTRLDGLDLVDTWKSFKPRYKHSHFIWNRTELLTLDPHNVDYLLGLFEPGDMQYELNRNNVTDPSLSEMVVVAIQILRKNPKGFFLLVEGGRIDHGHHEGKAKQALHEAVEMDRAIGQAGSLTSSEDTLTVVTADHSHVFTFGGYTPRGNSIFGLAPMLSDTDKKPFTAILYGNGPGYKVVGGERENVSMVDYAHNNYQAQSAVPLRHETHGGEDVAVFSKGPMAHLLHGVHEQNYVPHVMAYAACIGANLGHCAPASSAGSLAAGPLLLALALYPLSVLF

[12] = molecular target: Kappa-type opioid receptor (Homo sapiens, UniProt P41145); assay: SAR analysis of small molecule agonists of the kappa opioid receptor via a luminescent beta-arrestin assay - Set 3. [Related pubchem assays (depositor defined):AID1777, AID1785, AID1786, AID1966, AID2133, AID2136, AID2284, AID2500]; format: functional
Troponin, cardiac muscle = Troponin, cardiac muscle (Homo sapiens, UniProt P19429+P45379+P63316); assay: Fluorescence-based biochemical high throughput dose response assay for activators of the calcium sensitivity of cardiac Regulated Thin Filaments (RTF). [Related pubchem assays (depositor defined):AID493008, AID493018, AID504382, AID504383]; format: protein-complex assay

Chain of Alkaline phosphatase, placental type (P05187 whole entry): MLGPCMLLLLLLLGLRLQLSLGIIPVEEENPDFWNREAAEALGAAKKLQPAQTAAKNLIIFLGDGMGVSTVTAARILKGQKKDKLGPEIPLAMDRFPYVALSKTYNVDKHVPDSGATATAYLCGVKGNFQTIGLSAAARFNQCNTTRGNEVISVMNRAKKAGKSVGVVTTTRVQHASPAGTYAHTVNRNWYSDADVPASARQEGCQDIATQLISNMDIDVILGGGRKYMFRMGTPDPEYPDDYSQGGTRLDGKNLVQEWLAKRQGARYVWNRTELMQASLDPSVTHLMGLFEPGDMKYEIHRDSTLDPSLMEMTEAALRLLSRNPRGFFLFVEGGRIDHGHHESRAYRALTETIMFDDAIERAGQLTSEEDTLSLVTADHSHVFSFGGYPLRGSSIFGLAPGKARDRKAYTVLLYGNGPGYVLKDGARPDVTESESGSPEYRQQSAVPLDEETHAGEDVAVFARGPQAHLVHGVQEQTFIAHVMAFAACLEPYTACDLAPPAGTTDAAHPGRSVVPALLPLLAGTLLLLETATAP
Chain of CAAX prenyl protease 2 (Q03530 whole entry): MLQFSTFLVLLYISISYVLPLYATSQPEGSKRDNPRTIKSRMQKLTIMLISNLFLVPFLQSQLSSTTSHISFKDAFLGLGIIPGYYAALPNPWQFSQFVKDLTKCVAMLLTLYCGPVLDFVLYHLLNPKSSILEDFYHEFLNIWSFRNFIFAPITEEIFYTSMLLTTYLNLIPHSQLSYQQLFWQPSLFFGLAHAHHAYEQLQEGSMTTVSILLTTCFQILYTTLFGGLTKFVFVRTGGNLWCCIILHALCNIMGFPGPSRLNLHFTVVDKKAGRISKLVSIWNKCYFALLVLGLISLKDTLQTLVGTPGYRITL
Chain of CAAX prenyl protease 1 (P47154 whole entry): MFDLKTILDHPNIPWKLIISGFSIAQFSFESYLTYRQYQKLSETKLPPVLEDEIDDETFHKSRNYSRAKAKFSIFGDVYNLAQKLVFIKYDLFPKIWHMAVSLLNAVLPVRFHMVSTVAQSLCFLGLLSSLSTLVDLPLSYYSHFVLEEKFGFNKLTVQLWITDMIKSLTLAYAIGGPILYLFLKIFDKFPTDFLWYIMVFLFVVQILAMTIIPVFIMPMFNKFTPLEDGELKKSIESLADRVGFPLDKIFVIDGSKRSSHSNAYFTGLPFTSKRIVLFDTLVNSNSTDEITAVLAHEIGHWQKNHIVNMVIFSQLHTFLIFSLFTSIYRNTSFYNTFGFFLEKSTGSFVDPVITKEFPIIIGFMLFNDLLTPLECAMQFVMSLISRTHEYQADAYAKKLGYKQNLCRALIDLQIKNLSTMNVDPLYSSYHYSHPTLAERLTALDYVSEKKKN
Chain of Paired box protein Pax-8 (Q06710 whole entry): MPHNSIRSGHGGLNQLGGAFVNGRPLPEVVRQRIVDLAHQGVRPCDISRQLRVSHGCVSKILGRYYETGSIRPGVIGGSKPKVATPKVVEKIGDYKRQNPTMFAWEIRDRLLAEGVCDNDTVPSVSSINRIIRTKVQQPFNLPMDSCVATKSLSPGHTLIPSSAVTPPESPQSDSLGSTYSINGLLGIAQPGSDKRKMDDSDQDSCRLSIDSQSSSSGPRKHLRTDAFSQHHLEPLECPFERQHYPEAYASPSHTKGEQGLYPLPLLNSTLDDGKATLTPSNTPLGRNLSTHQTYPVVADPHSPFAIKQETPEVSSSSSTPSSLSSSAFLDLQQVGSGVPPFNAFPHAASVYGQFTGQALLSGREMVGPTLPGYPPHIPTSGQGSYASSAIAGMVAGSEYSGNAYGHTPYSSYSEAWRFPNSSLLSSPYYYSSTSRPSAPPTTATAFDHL
Chain of G-protein coupled receptor 55 (Q9Y2T6 whole entry): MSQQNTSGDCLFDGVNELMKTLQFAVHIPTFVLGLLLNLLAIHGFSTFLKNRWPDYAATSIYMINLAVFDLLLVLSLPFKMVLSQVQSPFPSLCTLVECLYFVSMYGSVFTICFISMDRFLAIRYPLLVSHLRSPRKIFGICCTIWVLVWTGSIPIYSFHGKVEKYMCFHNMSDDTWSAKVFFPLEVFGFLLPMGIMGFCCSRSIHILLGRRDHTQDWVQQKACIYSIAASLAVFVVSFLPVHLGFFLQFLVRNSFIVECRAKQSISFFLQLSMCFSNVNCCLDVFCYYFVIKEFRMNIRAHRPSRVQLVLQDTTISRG
Chain of Kappa-type opioid receptor (P41145 whole entry): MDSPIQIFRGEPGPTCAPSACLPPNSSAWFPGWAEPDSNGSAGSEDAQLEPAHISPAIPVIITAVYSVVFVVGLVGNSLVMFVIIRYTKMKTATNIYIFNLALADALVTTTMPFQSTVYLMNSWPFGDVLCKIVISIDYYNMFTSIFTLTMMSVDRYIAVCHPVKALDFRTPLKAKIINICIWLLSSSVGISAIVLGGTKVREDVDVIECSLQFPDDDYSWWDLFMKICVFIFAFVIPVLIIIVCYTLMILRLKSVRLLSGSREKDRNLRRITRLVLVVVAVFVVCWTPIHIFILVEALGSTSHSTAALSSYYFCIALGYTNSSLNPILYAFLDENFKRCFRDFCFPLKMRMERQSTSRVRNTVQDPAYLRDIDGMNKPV
Chain of Glyceraldehyde-3-phosphate dehydrogenase (P04406 whole entry): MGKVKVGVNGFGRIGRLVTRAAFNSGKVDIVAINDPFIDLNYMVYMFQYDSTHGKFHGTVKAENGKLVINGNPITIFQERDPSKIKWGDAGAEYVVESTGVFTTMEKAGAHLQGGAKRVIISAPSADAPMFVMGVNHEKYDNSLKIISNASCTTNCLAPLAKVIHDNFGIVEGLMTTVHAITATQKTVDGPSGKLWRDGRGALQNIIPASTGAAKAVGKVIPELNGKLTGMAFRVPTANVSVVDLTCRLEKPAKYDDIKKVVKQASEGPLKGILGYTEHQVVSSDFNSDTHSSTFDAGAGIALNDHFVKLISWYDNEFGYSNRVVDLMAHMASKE

With CN(C)C(=O)COc1ccc2ccc(=O)oc2c1 the AC50 (CAAX prenyl protease 2) was 41.5 µM (active) and the AC50 (CAAX prenyl protease 1) was 6.76 µM (active).

With CC(C)C(=O)N1CCN(c2ccc(NC(=O)c3ccc([N+](=O)[O-])o3)cc2)CC1 the CC50 [1] was 9.53 µM (active), the IC50 (Exodeoxyribonuclease V) was > 119 µM (inactive) and the CC50 [2] was 3.34 µM (active). The AC50 [3] was 7.98 µM (active), the CC50 [4] was 5.52 µM (active) and the IC50 (cells) was 0.54 µM (active). The AC50 (Paired box protein Pax-8) was 4.48 µM (active) and the IC50 [5] was > 119 µM (inactive).

For Cn1cccc1/C=C1\C(=O)NC(=O)N(Cc2ccccc2Cl)C1=O, the IC50 [6] was 0.978 µM (active).

With CCn1nnc(NC(=O)c2ccc([N+](=O)[O-])o2)n1 the CC50 [1] was > 20 µM (active), the EC50 [7] was > 60 µM (inconclusive) and the IC50 (Exodeoxyribonuclease V) was > 118 µM (inactive). The CC50 [2] was 4.8 µM (active), the CC50 [4] was 38.5 µM (active) and the EC50 [8] was 0.179 µM (active). The IC50 [5] was 61.7 µM (inactive).

With Nc1nc(Cc2ccc3ccccc3c2)n(-c2ccccc2)n1 the IC50 [9] was > 100 µM (not active), the IC50 [10] was > 100 µM (inactive) and the IC50 [11] was > 100 µM (inactive).

With Cc1cc(NCC(=O)c2ccc(O)c(O)c2)[nH]n1 the IC50 [10] was 5.71 µM (active) and the IC50 [11] was 18.3 µM (active).

With Clc1ccccc1Cn1c(SCc2ccc(Br)cc2)nnc1-c1ccccn1 the EC50 [12] was 14.2 µM (inactive).

With CC1(C)CC(=O)C(/C=N/c2cc(C(=O)c3ccccc3)ccc2N)=C(O)C1 the EC50 (Troponin, cardiac muscle) was 20.4 µM (inactive).

In the case of CCCNC(=O)Cn1c(=O)/c(=C\c2ccc(-c3ccc([N+](=O)[O-])cc3)o2)s/c1=C\C(=O)C(C)(C)C, the EC50 (Troponin, cardiac muscle) is reported as 0.165 µM (active).
